Results taken from patent US20020082254A1, “Compounds for treating disorders where a decreased level of plasma FFA is desired” (priority 2000, published 2002).
Counter-ions that a name gives are not always drawn.

What was measured:
[1] = target: T1, Hormone-sensitive lipase (HSL) (Homo sapiens, UniProt Q05469); assay: Hormone-sensitive lipase (HSL) inhibition assay, 3H-labeled triolein or MOME substrate; type: biochemical; conditions: read-out: HSL inhibition (IC50)
T1 sequence (Q05469 1-1076): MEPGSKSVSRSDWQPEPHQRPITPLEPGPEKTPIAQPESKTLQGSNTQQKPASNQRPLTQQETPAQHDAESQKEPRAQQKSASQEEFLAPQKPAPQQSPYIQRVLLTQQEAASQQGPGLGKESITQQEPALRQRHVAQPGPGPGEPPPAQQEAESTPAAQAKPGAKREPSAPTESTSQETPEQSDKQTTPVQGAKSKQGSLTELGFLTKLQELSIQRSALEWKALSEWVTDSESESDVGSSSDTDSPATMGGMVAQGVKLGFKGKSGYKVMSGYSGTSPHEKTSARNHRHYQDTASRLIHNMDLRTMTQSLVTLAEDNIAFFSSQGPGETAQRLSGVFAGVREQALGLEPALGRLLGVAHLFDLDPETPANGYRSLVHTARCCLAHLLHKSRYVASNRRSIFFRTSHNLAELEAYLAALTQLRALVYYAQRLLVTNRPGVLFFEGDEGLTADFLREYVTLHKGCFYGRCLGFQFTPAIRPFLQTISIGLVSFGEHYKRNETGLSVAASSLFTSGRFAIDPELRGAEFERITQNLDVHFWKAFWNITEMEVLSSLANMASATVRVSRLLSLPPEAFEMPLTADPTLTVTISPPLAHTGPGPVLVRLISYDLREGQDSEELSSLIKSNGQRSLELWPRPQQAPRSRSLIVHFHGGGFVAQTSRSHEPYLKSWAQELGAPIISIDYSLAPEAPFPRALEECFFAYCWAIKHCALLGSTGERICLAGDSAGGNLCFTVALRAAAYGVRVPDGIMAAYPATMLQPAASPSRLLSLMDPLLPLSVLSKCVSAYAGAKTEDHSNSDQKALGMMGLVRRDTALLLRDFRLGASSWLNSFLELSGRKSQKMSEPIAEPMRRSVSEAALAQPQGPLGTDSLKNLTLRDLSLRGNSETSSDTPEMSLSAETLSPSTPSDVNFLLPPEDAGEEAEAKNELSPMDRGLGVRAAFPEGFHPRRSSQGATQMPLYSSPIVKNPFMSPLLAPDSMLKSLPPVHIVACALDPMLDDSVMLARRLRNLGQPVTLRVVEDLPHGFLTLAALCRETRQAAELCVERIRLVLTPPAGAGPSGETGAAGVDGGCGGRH
Text: Hormone-sensitive lipase (HSL) [classified as a triacylglycerol lipase, EC 3.1.1.3, in accordance with the Recommendations of the Nomenclature Committee of the International Union of Biochemistry and Molecular Biology (available on the World Wide Web at the following address: http://www.chem.qmw.ac.uk/iubmb/enzyme/)]
Materials. The Hormone-sensitive lipase employed was provided by Dr. Cecilia Holm of Lund University, Sweden, or produced and purified by Novo Nordisk (NN) using the reagents and protocols employed by Dr. Holm. The substrates used are: ^3H-labeled triolein (TO) from Amersham, Buckinghamshire, U.K. cat No. TRA191; 5-20 Ci/mmol dissolved in toluene, triolein (Sigma, Cat. No. T-1740) and mono-oleoyl-2-O-mono-oleylglycerol (MOME) synthesized at (NN) using the protocols provided by Dr. Cecilia Holm, Lund University, Sweden. Phosphatidyl choline (PC) and phosphatidyl inositol (PI) are from Sigma (St Luis Mo., cat. Nos. P-3556 and P-5954, respectively). All other reagents are of commercial grade and obtained from various commercial sources.
Methods. The preparation of the substrates is as follows:
TO: 30 μl PC:PI (20 mg/ml solution of PC:PI 3:1 prepared in chloroform)+128 μl cold TO+15 μl ^3H-TO
MOME: 30 μl PC:PI+100 μl cold MOME+200 μl ^3H-MOME
They are then evaporated under a gentle stream of N2 followed by 20-30 minutes in a Speedvac™ apparatus to ensure the absence of residual solvent.
The samples are prepared as follows:
Samples/controls: 78 μl PED-BSA+20 μl inhibitor (various concentrations)+2 μl HSL (undiluted 0.12 mg/ml). If no inhibitors are being tested, the reaction contains 98 μl PED-BSA+2 μl HSL.
The samples are put on ice and then sonicated as follows:
With TO as substrate, add 2 ml potassium buffer (0.1M potassium phosphate, pH 7) and then sonicate twice for 1 minute, with a 1-minute interval between cycles. Add an additional 1 ml potassium buffer and sonicate 4 times for 30 seconds, with a 30 second interval in between cycles. To finish, add 1 ml BSA 20%-in potassium buffer, mix by inversion and store on ice until use.
With MOME as substrate: add 2 ml potassium buffer and then sonicate twice for 1 minute, with a 1 minute interval between cycles. Add 1.6 ml potassium buffer and sonicate 4 times for 30 seconds, with a 30-second interval between cycles. To finish, add 0.4 ml BSA 20%-buffer, mix by inversion and store on ice until use.
The enzyme reaction is run at 37° C. The substrate mix is added to the various reactions at 10 second intervals, incubated for 30 minutes in a water bath and then stopped with 3.25 ml of a solution containing CH3OH:CHCl3:heptane (10:9:7). After the addition of 1.05 ml potassium buffer pH10.5, the sample is vortexed thoroughly and centrifuged for 20 min at 2000 r.p.m. One ml of the upper phase is added to 10 ml scintillation fluid, and mixed thoroughly by shaking.
The samples are then counted, 5 min per vial, in a scintillation counter.

Lipoprotein lipase (LPL) = target: T2, Lipoprotein lipase (LPL) (Bos taurus, UniProt P11151); assay: Lipoprotein lipase (LPL) inhibition assay, 3H-triolein/intralipid substrate; type: biochemical; conditions: read-out: LPL inhibition (% inh. at 50 μM)
T2 construct: Dr. Gunilla Olivecrona, Umea University (gift)
T2 sequence (P11151 29-478): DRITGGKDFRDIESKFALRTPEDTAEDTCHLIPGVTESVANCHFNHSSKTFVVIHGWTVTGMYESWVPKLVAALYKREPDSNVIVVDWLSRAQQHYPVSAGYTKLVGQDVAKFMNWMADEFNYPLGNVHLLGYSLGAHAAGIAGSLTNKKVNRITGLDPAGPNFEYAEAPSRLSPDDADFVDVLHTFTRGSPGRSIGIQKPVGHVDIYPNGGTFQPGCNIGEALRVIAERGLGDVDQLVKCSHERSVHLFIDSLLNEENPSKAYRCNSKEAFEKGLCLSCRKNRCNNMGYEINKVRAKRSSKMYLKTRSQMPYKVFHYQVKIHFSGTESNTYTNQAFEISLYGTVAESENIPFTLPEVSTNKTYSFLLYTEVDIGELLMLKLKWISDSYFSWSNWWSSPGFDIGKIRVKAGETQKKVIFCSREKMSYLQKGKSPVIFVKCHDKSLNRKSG
Text: Lipoprotein Lipase (LPL) [Classified as EC 3.1.1.34 in accordance with the Recommendations of the Nomenclature Committee of the International Union of Biochemistry and Molecular Biology (available on the World Wide Web at the following address: http://www.chem.qmw.ac.uk/iubmb/enzyme/)]
Materials. The lipoprotein lipase employed was obtained from Dr. Gunilla Olivecrona of Umea University, Sweden. ^3H-triolein (TO) from Amersham, Buckinghamshire, U.K., cat No. TRA191; 5-20 Ci/mmol dissolved in toluene. Intralipid is from Kabi-Fresenius). Apo CII was obtained from PMSF-treated plasma from overnight fasted rats. All other reagents are of commercial grade and obtained from various commercial sources.
Methods. The preparation of the substrate is as follows:
25 μl of ^3H-Triolein evaporated under a gentle stream of N2 in a 27° C. room in 4 ml chromacol glass followed by the addition of 1 ml 10% intralipid. This is mixed and sonicated on ice for 5 minutes (50% pulse mode). This can be kept for 1 week at 4° C.
100 μl assay medium (0.3M Tris-Cl, 0.2M NaCl, 0.2 mg heparin/ml and 120 mg BSA/ml (fraction V, Sigma no. 3401, pH 8.5))
All mixed in a 13×100 mm glass tube and incubated for at least 5 minutes.
2. Add 5 μl LPL (of a solution containing 500 mU/mg)
Mix and incubate for 30 minutes at 25° C.
3. The reaction is stopped with 3.25 ml of a solution containing Methanol:chloroform:heptan 10:9:7. Add 1.05 ml buffer (100 mM Boric acid, 100 mM potassium carbonate pH 10.5) and mix 10 seconds per vial.
5. Take 1 ml of the upper phase+10 ml scintillation fluid and mix
6. Scintillation count for 5 minutes per vial.

Structure (SMILES)	IC50 [1] [nM]	inhibition at 50 µM (Lipoprotein lipase (LPL)) [%]
COc1ccc(OC(=O)NN2CCc3ccccc3C2)cc1 [Example 3, (3,4-Dihydro-1H-isoquinolin-2-yl)-carbamic acid 4-methoxy-phenyl Ester]	360	0
CCOC(=O)c1ccc(OC(=O)NN2CCc3ccccc3C2)cc1 [Example 35]	> 10000	0
Nc1ccc(OC(=O)NN2CCc3ccccc3C2)cc1 [Example 18, (3,4-Dihydro-1H-isoquinolin-2-yl)-carbamic Acid 4-amino-phenyl Ester Hydrochloride]	7700	0
O=C(NN1CCc2ccccc2C1)Oc1c(Cl)cccc1Cl [Example 11, (3,4-Dihydro-1H-isoquinolin-2-yl)-carbamic Acid 2.6-dichloro-phenyl Ester]	> 10000	7
CC(C)(C)c1ccc(OC(=O)NN2CCc3ccccc3C2)cc1 [Example 32]	> 10000	0
Cc1ccccc1OC(=O)NN1CCc2ccccc2C1 [Example 9, (3,4-Dihydro-1H-isoquinolin-2-yl)-carbamic Acid o-tolyl Ester]	1600	7
O=C(NN1CCc2ccccc2C1)Oc1ccc(C2CCCCC2)cc1 [Example 43]	> 10000	6
O=C(NN1CCc2ccccc2C1)Oc1ccc(Br)cc1 [Example 5, (3,4-Dihydro-1H-isoquinolin-2-yl)-carbamic acid 4-bromo-phenyl Ester]	39	7
CCCCCOc1ccc(OC(=O)NN2CCc3ccccc3C2)cc1 [Example 37]	3900	0
Cc1ccc(OC(=O)NN2CCc3ccccc3C2)cc1 [Example 8, (3,4-Dihydro-1H-isoquinolin-2-yl)-carbamic Acid p-tolyl Ester]	30	1
CCC(C)(C)c1ccc(OC(=O)NN2CCc3ccccc3C2)cc1 [Example 31]	> 10000	1
CC1c2ccccc2CCN1NC(=O)Oc1ccc(Cl)cc1 (stereo not shown) [Example 22, (1-Methyl-3,4-dihydro-1H-isoquinolin-2-yl)-carbamic Acid 4chloro-phenyl Ester]	30	10
O=C(NN1CCc2ccccc2C1)Oc1ccc(C(F)(F)F)cc1 [Example 13, (3,4-Dihydro-1H-isoquinolin-2-yl)-carbamic Acid 4-trifluoromethyl-phenyl Ester]	45	3
O=C(NN1CCc2ccccc2C1)Oc1ccc(Oc2ccccc2)cc1 [Example 38]	330	0
